Source: PubChem BioAssay (NCI)
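96-well plates; 48 h exposure; 5 concentrations. Endpoints by linear interpolation between flanking doses. Not reached: highest tested concentration assigned. At the TGI there is no net growth.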

What was measured:
Assay in all cases: NCI tumour cell line growth inhibition, 48 h
SF-539 CNS = tested on: SF-539 CNS
SK-MEL-28 melanoma = tested on: SK-MEL-28 melanoma
SF-295 CNS = tested on: SF-295 CNS
SK-MEL-2 melanoma = tested on: SK-MEL-2 melanoma
NCI-H226 lung = tested on: NCI-H226 lung
MALME-3M melanoma = tested on: MALME-3M melanoma
SW-620 colon = tested on: SW-620 colon
SNB-19 CNS = tested on: SNB-19 CNS
K-562 leukemia = tested on: K-562 leukemia
UACC-257 melanoma = tested on: UACC-257 melanoma
HOP-18 NSCLC = tested on: HOP-18 NSCLC
U251 CNS = tested on: U251 CNS
SNB-78 CNS = tested on: SNB-78 CNS
HCC-2998 colon = tested on: HCC-2998 colon
OVCAR-8 ovarian = tested on: OVCAR-8 ovarian
HCT-116 colon = tested on: HCT-116 colon
NCI/ADR-RES ovarian = tested on: NCI/ADR-RES ovarian
EKVX NSCLC = tested on: EKVX NSCLC
A549 NSCLC = tested on: A549 NSCLC
NCI-H460 lung = tested on: NCI-H460 lung
RPMI-8226 leukemia = tested on: RPMI-8226 leukemia
HOP-62 NSCLC = tested on: HOP-62 NSCLC
MOLT-4 leukemia = tested on: MOLT-4 leukemia
DMS 114 small cell lung = tested on: DMS 114 small cell lung
DLD-1 colon = tested on: DLD-1 colon
SF-268 CNS = tested on: SF-268 CNS
NCI-H23 lung = tested on: NCI-H23 lung
HCT-15 colon = tested on: HCT-15 colon
CAKI-1 renal = tested on: CAKI-1 renal
MCF7 breast = tested on: MCF7 breast
SN12C renal = tested on: SN12C renal
DMS 273 small cell lung = tested on: DMS 273 small cell lung
M19-MEL melanoma = tested on: M19-MEL melanoma
UACC-62 melanoma = tested on: UACC-62 melanoma
RXF 393 renal = tested on: RXF 393 renal
CCRF-CEM leukemia = tested on: CCRF-CEM leukemia
KM12 colon = tested on: KM12 colon
SK-MEL-5 melanoma = tested on: SK-MEL-5 melanoma
SNB-75 CNS = tested on: SNB-75 CNS
SK-OV-3 ovarian = tested on: SK-OV-3 ovarian
KM20L2 colon = tested on: KM20L2 colon
A498 renal = tested on: A498 renal
OVCAR-5 ovarian = tested on: OVCAR-5 ovarian
HOP-92 NSCLC = tested on: HOP-92 NSCLC
OVCAR-4 ovarian = tested on: OVCAR-4 ovarian
COLO 205 colon = tested on: COLO 205 colon
HL-60(TB) leukemia = tested on: HL-60(TB) leukemia
UO-31 renal = tested on: UO-31 renal
HT29 colon = tested on: HT29 colon
OVCAR-3 ovarian = tested on: OVCAR-3 ovarian
NCI-H522 lung = tested on: NCI-H522 lung
P388/ADR leukemia = tested on: P388/ADR leukemia
P388 leukemia = tested on: P388 leukemia
LOX IMVI melanoma = tested on: LOX IMVI melanoma
SN12K1 renal = tested on: SN12K1 renal
XF 498 CNS = tested on: XF 498 CNS
IGROV1 ovarian = tested on: IGROV1 ovarian

With CNC(=O)OCc1nc(SC)n(C)c1CO the TGI (SF-539 CNS) was greater than 100 µM, the TGI (SK-MEL-28 melanoma) was greater than 100 µM and the TGI (SF-295 CNS) was greater than 100 µM. For the same compound, the TGI (SK-MEL-2 melanoma) was greater than 66.8 µM, the TGI (NCI-H226 lung) was greater than 100 µM and the TGI (MALME-3M melanoma) was 3.42 µM. For the same compound, the TGI (SW-620 colon) was greater than 100 µM, the TGI (SNB-19 CNS) was greater than 100 µM and the TGI (K-562 leukemia) was greater than 100 µM. It also gave a TGI (UACC-257 melanoma) greater than 100 µM, a TGI (HOP-18 NSCLC) greater than 100 µM and a TGI (U251 CNS) greater than 100 µM. The TGI (SNB-78 CNS) was greater than 100 µM, the TGI (HCC-2998 colon) was greater than 100 µM and the TGI (OVCAR-8 ovarian) was greater than 100 µM. The TGI (HCT-116 colon) was greater than 100 µM, the TGI (NCI/ADR-RES ovarian) was greater than 100 µM and the TGI (EKVX NSCLC) was greater than 100 µM. For the same compound, the TGI (A549 NSCLC) was greater than 100 µM, the TGI (NCI-H460 lung) was greater than 100 µM and the TGI (RPMI-8226 leukemia) was greater than 100 µM. For the same compound, the TGI (HOP-62 NSCLC) was greater than 100 µM, the TGI (MOLT-4 leukemia) was greater than 100 µM and the TGI (DMS 114 small cell lung) was greater than 100 µM. It also gave a TGI (DLD-1 colon) greater than 100 µM, a TGI (SF-268 CNS) greater than 100 µM and a TGI (NCI-H23 lung) greater than 100 µM. It also gave a TGI (HCT-15 colon) greater than 100 µM, a TGI (CAKI-1 renal) greater than 100 µM and a TGI (MCF7 breast) greater than 100 µM. It also gave a TGI (SN12C renal) greater than 100 µM, a TGI (DMS 273 small cell lung) greater than 100 µM and a TGI (M19-MEL melanoma) greater than 100 µM. The TGI (UACC-62 melanoma) was greater than 100 µM, the TGI (RXF 393 renal) was greater than 100 µM and the TGI (CCRF-CEM leukemia) was greater than 100 µM. It also gave a TGI (KM12 colon) greater than 100 µM, a TGI (SK-MEL-5 melanoma) greater than 100 µM and a TGI (SNB-75 CNS) greater than 100 µM. For the same compound, the TGI (SK-OV-3 ovarian) was greater than 100 µM, the TGI (KM20L2 colon) was greater than 100 µM and the TGI (A498 renal) was greater than 100 µM. The TGI (OVCAR-5 ovarian) was greater than 100 µM, the TGI (HOP-92 NSCLC) was greater than 100 µM and the TGI (OVCAR-4 ovarian) was greater than 100 µM. It also gave a TGI (COLO 205 colon) greater than 100 µM, a TGI (HL-60(TB) leukemia) greater than 100 µM and a TGI (UO-31 renal) greater than 100 µM. The TGI (HT29 colon) was greater than 100 µM, the TGI (OVCAR-3 ovarian) was greater than 100 µM and the TGI (NCI-H522 lung) was greater than 100 µM. The TGI (P388/ADR leukemia) was greater than 100 µM, the TGI (P388 leukemia) was greater than 100 µM and the TGI (LOX IMVI melanoma) was greater than 100 µM. The TGI (SN12K1 renal) was greater than 100 µM, the TGI (XF 498 CNS) was greater than 100 µM and the TGI (IGROV1 ovarian) was greater than 100 µM.
